In ChEMBL document CHEMBL3526058, “Investigating the enteroenteric recirculation of apixaban, a factor Xa inhibitor: administration of activated charcoal to bile duct-cannulated rats and dogs receiving an intravenous dose and use of drug transporter knockout rats” (Drug Metab Dispos, 2013):

Experiments:
[1] = Oral steady-state volume of distribution in beagle dog at 5 mg/kg; assay type: ADME, organism-based, Canis lupus familiaris; parameters: dose 5 mg/kg; settings: in vivo, read-out: Vss/F
[2] = Half life in human administered bid orally; assay type: ADME, organism-based; settings: in vivo, po
[3] = AUC (0 to infinity) in P-gp-knockout Sprague-Dawley rat at 4 mg/kg, po; assay type: ADME, organism-based; parameters: time infinity, dose 4 mg/kg, route oral; settings: plasma
[4] = Oral steady-state volume of distribution in beagle dog at 5 mg/kg followed by activated charcoal administration 3 hrs post compound dosing; assay type: ADME, organism-based, Canis lupus familiaris; parameters: dose 5 mg/kg; settings: in vivo, read-out: Vss/F
[5] = Oral steady-state volume of distribution in P-gp-knockout Sprague-Dawley rat at 4 mg/kg; assay type: ADME, organism-based; parameters: dose 4 mg/kg; settings: in vivo, read-out: Vss/F
[6] = AUC (0 to 24 hrs) in beagle dog at 5 mg/kg, po followed by activated charcoal administration 0.25 hrs post compound dosing; assay type: ADME, organism-based, Canis lupus familiaris; parameters: time < 24 hr, dose 5 mg/kg, route oral; settings: plasma
[7] = Apparent oral clearance in beagle dog at 5 mg/kg, po; assay type: ADME, organism-based, Canis lupus familiaris; parameters: dose 5 mg/kg, route oral; settings: in vivo
[8] = Plasma concentration in beagle dog at 5 mg/kg, po followed by activated charcoal administration 1 hr post compound dosing measured at 8 hrs; assay type: ADME, organism-based, Canis lupus familiaris; parameters: dose 5 mg/kg, route oral
[9] = Oral bioavailability in beagle dog at 5 mg/kg; assay type: ADME, organism-based, Canis lupus familiaris; settings: in vivo
[10] = species on record: Homo sapiens; assay: Plasma clearance in human relative to hepatic blood flow; assay type: ADME, organism-based; settings: in vivo
[11] = AUC (0 to infinity) in wild-type Sprague-Dawley rat at 4 mg/kg, po; assay type: ADME, organism-based; parameters: time infinity, dose 4 mg/kg, route oral; settings: plasma
[12] = Half life in BCRP-knockout Sprague-Dawley rat at 4 mg/kg, po; assay type: ADME, organism-based; parameters: dose 4 mg/kg, route oral; settings: in vivo
[13] = Plasma concentration in beagle dog at 5 mg/kg, po followed by activated charcoal administration 3 hrs post compound dosing measured at 8 hrs; assay type: ADME, organism-based, Canis lupus familiaris; parameters: dose 5 mg/kg, route oral
[14] = species on record: Canis familiaris; assay: Plasma clearance in dog relative to hepatic blood flow; assay type: ADME, organism-based, Canis lupus familiaris; settings: in vivo
[15] = Apparent oral clearance in beagle dog at 5 mg/kg, po followed by activated charcoal administration 3 hrs post compound dosing; assay type: ADME, organism-based, Canis lupus familiaris; parameters: dose 5 mg/kg, route oral; settings: in vivo
[16] = Half life in Sprague-Dawley rat at 4 mg/kg, po administered 1 hr post GF-120918 treatment; assay type: ADME, organism-based; parameters: dose 4 mg/kg, route oral; settings: in vivo, with GF-120918
[17] = Mean residence time in P-gp-knockout Sprague-Dawley rat at 4 mg/kg, po; assay type: ADME, organism-based; parameters: dose 4 mg/kg, route oral; settings: in vivo
[18] = Mean residence time in wild-type Sprague-Dawley rat at 4 mg/kg, po; assay type: ADME, organism-based; parameters: dose 4 mg/kg, route oral; settings: in vivo
[19] = Oral steady-state volume of distribution in beagle dog at 5 mg/kg followed by activated charcoal administration 1 hr post compound dosing; assay type: ADME, organism-based, Canis lupus familiaris; parameters: dose 5 mg/kg; settings: in vivo, read-out: Vss/F
[20] = Half life in beagle dog at 5 mg/kg, po followed by activated charcoal administration 3 hrs post compound dosing; assay type: ADME, organism-based, Canis lupus familiaris; parameters: dose 5 mg/kg, route oral; settings: in vivo
[21] = Half life in beagle dog at 5 mg/kg, po followed by activated charcoal administration 1 hr post compound dosing; assay type: ADME, organism-based, Canis lupus familiaris; parameters: dose 5 mg/kg, route oral; settings: in vivo
[22] = Cmax in P-gp-knockout Sprague-Dawley rat at 4 mg/kg, po; assay type: ADME, organism-based; parameters: dose 4 mg/kg, route oral; settings: in vivo
[23] = Cmax in beagle dog at 5 mg/kg, po followed by activated charcoal administration 0.25 hrs post compound dosing; assay type: ADME, organism-based, Canis lupus familiaris; parameters: dose 5 mg/kg, route oral; settings: in vivo
[24] = Cmax in beagle dog at 5 mg/kg, po; assay type: ADME, organism-based, Canis lupus familiaris; parameters: dose 5 mg/kg, route oral; settings: in vivo
[25] = Mean residence time in beagle dog at 5 mg/kg, po followed by activated charcoal administration 0.25 hrs post compound dosing; assay type: ADME, organism-based, Canis lupus familiaris; parameters: dose 5 mg/kg, route oral; settings: in vivo
[26] = Apparent oral clearance in Sprague-Dawley rat at 4 mg/kg, po administered 1 hr post GF-120918 treatment; assay type: ADME, organism-based; parameters: dose 4 mg/kg, route oral; settings: in vivo, with GF-120918
[27] = species on record: Rattus norvegicus; assay: Plasma clearance in rat relative to hepatic blood flow; assay type: ADME, organism-based; settings: in vivo
[28] = Cmax in BCRP-knockout Sprague-Dawley rat at 4 mg/kg, po; assay type: ADME, organism-based; parameters: dose 4 mg/kg, route oral; settings: in vivo
[29] = Plasma concentration in beagle dog at 5 mg/kg, po at 8 hrs; assay type: ADME, organism-based, Canis lupus familiaris; parameters: dose 5 mg/kg, route oral
[30] = Oral bioavailability in beagle dog at 5 mg/kg followed by activated charcoal administration 0.25 hrs post compound dosing; assay type: ADME, organism-based, Canis lupus familiaris; settings: in vivo
[31] = Oral bioavailability in beagle dog at 5 mg/kg followed by activated charcoal administration 1 hr post compound dosing; assay type: ADME, organism-based, Canis lupus familiaris; settings: in vivo
[32] = Apparent oral clearance in beagle dog at 5 mg/kg, po followed by activated charcoal administration 0.25 hrs post compound dosing; assay type: ADME, organism-based, Canis lupus familiaris; parameters: dose 5 mg/kg, route oral; settings: in vivo
[33] = Half life in beagle dog at 5 mg/kg, po; assay type: ADME, organism-based, Canis lupus familiaris; parameters: dose 5 mg/kg, route oral; settings: in vivo

Vd/F [1]: 0.5 L/kg
half-life [2]: 12 h
AUC(0-inf) [3]: 3.34 µg·h/mL
Vd/F [4]: 0.5 L/kg
Vd/F [5]: 2.4 L/kg
AUC(0-t) at 24 h [6]: 59.5 µg·h/mL
CL/F [7]: 0.06 L/h/kg
concentration at 8 h [8]: 3.38 µg/mL
bioavailability [9]: 93%
CL [10]: < 5%
AUC(0-inf) [11]: 1.39 µg·h/mL
half-life [12]: 2.5 h
concentration at 8 h [13]: 2.19 µg/mL
CL [14]: < 5%
CL/F [15]: 0.101 L/h/kg
half-life [16]: 1.6 h
MRT [17]: 3.8 h
MRT [18]: 3.8 h
Vd/F [19]: 0.5 L/kg
half-life [20]: 3 h
half-life [21]: 4 h
Cmax [22]: 0.94 µg/mL
Cmax [23]: 8.42 µg/mL
Cmax [24]: 9.35 µg/mL
MRT [25]: 6.4 h
CL/F [26]: 0.3 L/h/kg
CL [27]: < 5%
Cmax [28]: 1.92 µg/mL
concentration at 8 h [29]: 5.23 µg/mL
bioavailability [30]: 92%
bioavailability [31]: 99%
CL/F [32]: 0.082 L/h/kg
half-life [33]: 5.7 h
SMILES: COc1ccc(-n2nc(C(N)=O)c3c2C(=O)N(c2ccc(N4CCCCC4=O)cc2)CC3)cc1
